# Reference: ChEMBL document CHEMBL1201862, “PubChem BioAssay data set” (2004)
# Calls of active or inactive are those of the source.
# How the values were obtained:
# [1] = molecular target: T1, Dual specificity protein phosphatase 3 (Homo sapiens, UniProt P51452); experiment: VHR1 phosphatase inhibitors, biochemical (AID 1878)
# [2] = molecular target: Low molecular weight phosphotyrosine protein phosphatase (Homo sapiens, UniProt P24666); format: functional; settings: read-out: IC50_Mean
# [3] = molecular target: T2, Dual specificity protein phosphatase 6 (Rattus norvegicus, UniProt Q64346); experiment: inhibition of rat DUSP6 enzyme activity – biochemical, in vitro, primary screen (AID 425)
# T2 sequence (Q64346 whole entry): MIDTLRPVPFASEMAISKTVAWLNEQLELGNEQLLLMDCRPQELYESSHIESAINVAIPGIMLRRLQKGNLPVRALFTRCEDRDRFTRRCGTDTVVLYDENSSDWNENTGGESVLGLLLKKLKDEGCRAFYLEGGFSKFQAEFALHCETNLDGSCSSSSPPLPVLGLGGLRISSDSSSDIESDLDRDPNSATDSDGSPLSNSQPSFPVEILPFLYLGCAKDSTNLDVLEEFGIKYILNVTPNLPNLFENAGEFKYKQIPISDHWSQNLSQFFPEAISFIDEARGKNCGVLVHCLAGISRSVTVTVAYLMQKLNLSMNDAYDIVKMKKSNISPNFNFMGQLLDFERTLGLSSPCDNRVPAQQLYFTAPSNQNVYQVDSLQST
# [4] = molecular target: T3, Carboxy-terminal domain RNA polymerase II polypeptide A small phosphatase 1 (Homo sapiens, UniProt Q9GZU7); experiment: CTDSP1 inhibitors, concentration-response, biochemical, absorbance readout, ultra-high-throughput screen actives (AID 540297); format: functional
# T3 sequence (Q9GZU7 whole entry): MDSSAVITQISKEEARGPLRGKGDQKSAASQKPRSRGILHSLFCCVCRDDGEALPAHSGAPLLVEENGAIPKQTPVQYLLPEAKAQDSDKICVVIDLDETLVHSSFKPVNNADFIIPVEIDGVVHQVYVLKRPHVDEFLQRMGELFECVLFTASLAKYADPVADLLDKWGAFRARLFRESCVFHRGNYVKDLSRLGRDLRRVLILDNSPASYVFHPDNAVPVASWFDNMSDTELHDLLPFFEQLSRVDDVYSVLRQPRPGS
# [5] = molecular target: T1, Dual specificity protein phosphatase 3; experiment: VHR1 phosphatase inhibitors, primary screen, biochemical, absorbance, uHTS (AID 1654)
# [6] = molecular target: T4, G-protein coupled receptor 55 (Homo sapiens, UniProt Q9Y2T6); experiment: blockade of LPI-induced GPR55 arrestin translocation – imaging, U2OS, beta-arrestin-GFP, LPI agonist, set 2, SAR follow-up (AID 2820); format: functional
# T4 sequence (Q9Y2T6 whole entry): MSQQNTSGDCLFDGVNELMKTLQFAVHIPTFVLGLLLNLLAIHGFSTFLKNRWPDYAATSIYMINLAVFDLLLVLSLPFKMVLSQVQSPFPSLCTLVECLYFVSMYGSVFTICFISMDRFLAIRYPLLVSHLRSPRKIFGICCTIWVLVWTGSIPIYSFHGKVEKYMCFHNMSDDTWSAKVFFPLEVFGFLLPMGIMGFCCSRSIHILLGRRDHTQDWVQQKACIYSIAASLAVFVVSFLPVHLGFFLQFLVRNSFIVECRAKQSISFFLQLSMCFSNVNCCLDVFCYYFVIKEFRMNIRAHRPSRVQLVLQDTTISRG
# [7] = molecular target: T5, G-protein coupled receptor 35 (Homo sapiens, UniProt Q9HC97); experiment: SAR analysis of Antagonists of the GPR35 Receptor using an Image-Based Assay - Set 3. [Related pubchem assays (depositor defined):AID2013, AID2026]; format: functional
# T5 sequence (Q9HC97 whole entry): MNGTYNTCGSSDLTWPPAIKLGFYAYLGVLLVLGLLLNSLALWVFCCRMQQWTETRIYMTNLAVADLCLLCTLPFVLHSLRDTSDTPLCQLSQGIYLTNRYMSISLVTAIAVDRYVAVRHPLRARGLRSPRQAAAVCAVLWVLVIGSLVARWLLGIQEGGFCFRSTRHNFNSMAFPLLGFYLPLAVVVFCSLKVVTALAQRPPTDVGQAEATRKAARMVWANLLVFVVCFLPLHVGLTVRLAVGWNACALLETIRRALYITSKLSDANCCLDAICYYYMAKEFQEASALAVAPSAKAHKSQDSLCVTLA
# Cannabinoid receptor 2 [8] = molecular target: T6, Cannabinoid receptor 2 (Homo sapiens, UniProt P34972); experiment: SAR analysis of agonists of the Cannabinoid Receptor 2 using an Image-Based Assay. [Related pubchem assays (depositor defined):AID2013, AID2026]; format: functional
# T6 sequence (P34972 whole entry): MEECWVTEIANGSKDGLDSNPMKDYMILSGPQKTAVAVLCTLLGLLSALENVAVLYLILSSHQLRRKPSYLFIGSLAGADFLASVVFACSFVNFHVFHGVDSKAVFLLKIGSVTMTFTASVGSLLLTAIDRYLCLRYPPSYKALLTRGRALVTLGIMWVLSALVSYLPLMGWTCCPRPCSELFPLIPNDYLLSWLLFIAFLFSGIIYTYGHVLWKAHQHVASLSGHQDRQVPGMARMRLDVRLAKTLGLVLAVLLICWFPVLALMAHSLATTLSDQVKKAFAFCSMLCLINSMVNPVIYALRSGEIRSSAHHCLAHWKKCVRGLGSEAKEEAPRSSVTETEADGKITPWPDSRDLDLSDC
# [9] = molecular target: T5, G-protein coupled receptor 35; experiment: SAR analysis of Agonists of the GPR35 Receptor using an Image-Based Assay - Set 2. [Related pubchem assays (depositor defined):AID2013, AID2026]; format: functional
# Cannabinoid receptor 1 [10] = molecular target: T7, Cannabinoid receptor 1 (Homo sapiens, UniProt P21554); experiment: SAR analysis of agonists of the Cannabinoid Receptor 1 using an Image-Based Assay - Set 2. [Related pubchem assays (depositor defined):AID2013, AID2026]; format: functional
# T7 sequence (P21554 whole entry): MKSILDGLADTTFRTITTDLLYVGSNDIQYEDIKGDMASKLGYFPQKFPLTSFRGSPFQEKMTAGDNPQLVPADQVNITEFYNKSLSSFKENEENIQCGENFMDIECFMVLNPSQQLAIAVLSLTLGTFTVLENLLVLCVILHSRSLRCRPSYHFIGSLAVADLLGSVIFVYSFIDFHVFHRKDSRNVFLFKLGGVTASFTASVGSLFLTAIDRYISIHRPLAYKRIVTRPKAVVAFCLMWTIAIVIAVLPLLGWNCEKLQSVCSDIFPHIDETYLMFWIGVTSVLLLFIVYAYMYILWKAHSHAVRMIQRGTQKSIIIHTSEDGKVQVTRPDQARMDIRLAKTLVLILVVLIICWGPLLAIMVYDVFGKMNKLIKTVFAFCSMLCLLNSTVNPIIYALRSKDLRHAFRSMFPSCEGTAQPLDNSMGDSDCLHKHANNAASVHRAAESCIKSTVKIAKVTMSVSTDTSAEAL
# [11] = molecular target: T4, G-protein coupled receptor 55; experiment: inhibition of LPI-stimulated GPR55 beta-arrestin translocation – imaging, U2OS, beta-arrestin-GFP, LPI agonist, primary screen (AID 2013); format: functional;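 also: antagonist potency measured as reduced agonist-driven arrestin aggregation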
# Cannabinoid receptor 1 [12] = molecular target: T7, Cannabinoid receptor 1; experiment: SAR analysis of antagonists of the Cannabinoid Receptor 1 using an Image-Based Assay - Set 2. [Related pubchem assays (depositor defined):AID2013, AID2026]; format: functional
# Cannabinoid receptor 2 [13] = molecular target: T6, Cannabinoid receptor 2; experiment: SAR analysis of antagonists of the Cannabinoid Receptor 2 using an Image-Based Assay. [Related pubchem assays (depositor defined):AID2013, AID2026]; format: functional
# [14] = molecular target: T8, Alkaline phosphatase, tissue-nonspecific isozyme (Homo sapiens, UniProt P05186); experiment: TNAP enzyme inhibition by screening hits, dose response, selectivity assay for mouse IAP inhibitor project, biochemical, human TNAP, uHTS hits (AID 488906); format: functional
# T8 sequence (P05186 whole entry): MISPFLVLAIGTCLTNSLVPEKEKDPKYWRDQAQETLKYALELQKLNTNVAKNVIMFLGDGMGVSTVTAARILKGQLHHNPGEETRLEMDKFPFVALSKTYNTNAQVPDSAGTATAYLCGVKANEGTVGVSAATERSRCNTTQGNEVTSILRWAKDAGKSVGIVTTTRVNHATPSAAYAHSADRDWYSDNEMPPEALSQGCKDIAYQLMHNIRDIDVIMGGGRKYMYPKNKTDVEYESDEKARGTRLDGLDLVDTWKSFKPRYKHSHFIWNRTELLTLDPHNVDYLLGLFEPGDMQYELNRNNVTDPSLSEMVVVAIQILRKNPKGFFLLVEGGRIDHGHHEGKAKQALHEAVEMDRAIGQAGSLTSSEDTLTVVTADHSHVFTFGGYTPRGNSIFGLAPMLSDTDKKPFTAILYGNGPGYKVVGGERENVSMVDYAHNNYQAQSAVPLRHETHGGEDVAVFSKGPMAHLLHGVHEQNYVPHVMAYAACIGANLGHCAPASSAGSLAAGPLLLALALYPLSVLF
# [15] = molecular target: Intestinal-type alkaline phosphatase (Mus musculus, UniProt P24822); experiment: PubChem AID 488785; format: functional
# Sequence of Intestinal-type alkaline phosphatase (Mus musculus, UniProt P24822) (P24822 whole entry, the tested form may be a part): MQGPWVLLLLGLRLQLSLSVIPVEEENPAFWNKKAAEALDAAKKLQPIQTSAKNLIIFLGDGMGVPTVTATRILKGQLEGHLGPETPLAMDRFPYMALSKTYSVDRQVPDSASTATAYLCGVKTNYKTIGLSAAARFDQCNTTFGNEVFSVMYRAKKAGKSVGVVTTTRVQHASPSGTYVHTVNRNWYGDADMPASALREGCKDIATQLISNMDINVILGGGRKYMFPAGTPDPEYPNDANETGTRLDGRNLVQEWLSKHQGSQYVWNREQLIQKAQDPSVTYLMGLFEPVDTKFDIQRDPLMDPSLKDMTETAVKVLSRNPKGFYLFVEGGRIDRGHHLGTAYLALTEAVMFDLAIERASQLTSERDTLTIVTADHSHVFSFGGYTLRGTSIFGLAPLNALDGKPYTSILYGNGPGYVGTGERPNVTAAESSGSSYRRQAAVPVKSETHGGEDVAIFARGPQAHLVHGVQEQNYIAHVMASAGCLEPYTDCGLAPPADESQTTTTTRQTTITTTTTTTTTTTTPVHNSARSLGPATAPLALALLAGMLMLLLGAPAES
# [16] = molecular target: T9, Polyadenylate-binding protein 1 (Homo sapiens, UniProt P11940); experiment: MLLE domain peptide-binding blockers, IC50 – biochemical, fluorescence polarization, FITC-PAM2 peptide, dose response (AID 602259); format: functional; settings: read-out: IC50_Mean
# T9 sequence (P11940 whole entry, the tested form may be a part): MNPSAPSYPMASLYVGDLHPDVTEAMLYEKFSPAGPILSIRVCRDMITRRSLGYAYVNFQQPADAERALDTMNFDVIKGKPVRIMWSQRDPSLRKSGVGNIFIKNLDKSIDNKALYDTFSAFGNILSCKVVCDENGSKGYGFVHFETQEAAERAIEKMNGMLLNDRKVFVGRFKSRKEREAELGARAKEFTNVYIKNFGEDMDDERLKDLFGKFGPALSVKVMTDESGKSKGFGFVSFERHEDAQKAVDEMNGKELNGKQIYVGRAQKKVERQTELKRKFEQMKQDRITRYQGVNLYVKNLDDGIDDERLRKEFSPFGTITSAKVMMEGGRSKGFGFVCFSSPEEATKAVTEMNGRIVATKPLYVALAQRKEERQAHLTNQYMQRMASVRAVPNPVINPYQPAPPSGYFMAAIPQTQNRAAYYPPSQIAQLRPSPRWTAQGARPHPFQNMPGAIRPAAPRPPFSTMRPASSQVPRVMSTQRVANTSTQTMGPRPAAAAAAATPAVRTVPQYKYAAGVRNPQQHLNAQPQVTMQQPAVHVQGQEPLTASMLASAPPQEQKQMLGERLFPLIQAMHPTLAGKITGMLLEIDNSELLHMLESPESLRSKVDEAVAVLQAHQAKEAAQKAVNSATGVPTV
# [17] = molecular target: T9, Polyadenylate-binding protein 1; experiment: MLLE binding blockers, Cy5 peptide tracer – biochemical, fluorescence polarization, Cy5-PAM2 peptide, secondary, miRNA deadenylation inhibitor project, dose response (AID 602260); format: functional; settings: read-out: IC50_Mean
# [18] = molecular target: Intestinal-type alkaline phosphatase (Homo sapiens, UniProt P09923); experiment: activation of human intestinal alkaline phosphatase – biochemical, dose response (AID 488873); format: functional
# Sequence of Intestinal-type alkaline phosphatase (Homo sapiens, UniProt P09923) (P09923 whole entry): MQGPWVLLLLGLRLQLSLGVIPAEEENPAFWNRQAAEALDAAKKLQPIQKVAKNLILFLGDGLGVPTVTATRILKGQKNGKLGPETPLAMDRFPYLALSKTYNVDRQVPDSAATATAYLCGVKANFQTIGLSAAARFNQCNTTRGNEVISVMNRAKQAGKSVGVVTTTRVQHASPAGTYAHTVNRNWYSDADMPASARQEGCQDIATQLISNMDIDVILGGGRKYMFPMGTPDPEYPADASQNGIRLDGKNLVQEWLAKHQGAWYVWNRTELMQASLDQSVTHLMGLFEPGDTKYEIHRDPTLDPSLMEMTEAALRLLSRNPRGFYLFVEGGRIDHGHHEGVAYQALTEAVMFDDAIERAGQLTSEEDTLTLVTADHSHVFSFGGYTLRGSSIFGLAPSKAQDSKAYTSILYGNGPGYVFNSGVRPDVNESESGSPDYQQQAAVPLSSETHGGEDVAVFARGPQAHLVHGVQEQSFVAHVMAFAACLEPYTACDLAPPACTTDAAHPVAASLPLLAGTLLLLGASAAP
# T1 sequence (P51452 whole entry): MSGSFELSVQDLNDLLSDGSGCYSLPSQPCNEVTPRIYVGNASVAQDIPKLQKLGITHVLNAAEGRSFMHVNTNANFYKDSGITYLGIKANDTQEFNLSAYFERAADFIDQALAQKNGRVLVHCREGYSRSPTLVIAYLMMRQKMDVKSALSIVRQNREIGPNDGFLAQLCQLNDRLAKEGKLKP
# Sequence of Low molecular weight phosphotyrosine protein phosphatase (P24666 whole entry): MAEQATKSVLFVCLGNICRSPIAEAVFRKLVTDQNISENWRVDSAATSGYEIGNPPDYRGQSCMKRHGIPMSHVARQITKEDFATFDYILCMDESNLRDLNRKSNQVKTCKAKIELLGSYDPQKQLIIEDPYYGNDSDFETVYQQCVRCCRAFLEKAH
smiles,measurement,setting,value
Cc1ccc(-n2c(=O)c3cc4c(=O)n(-c5ccc(C)c(C)c5)c(=O)c4c(C(=O)c4ccc(C(=O)O)cc4)c3c2=O)cc1C,IC50,[1],5.31 µM (active)
same,IC50,[2],3.13 µM (active)
same,IC50,[3],18.9 µM (active)
same,IC50,[4],1.12 µM (active)
same,IC50,[5],3.39 µM (active)
COc1ccc(S(=O)(=O)Nc2ccc(F)cc2)cc1N(C)S(=O)(=O)c1ccc(Cl)cc1,IC50,[6],0.831 µM (active)
same,IC50,[7],> 32 µM (inactive)
same,EC50,Cannabinoid receptor 2 [8],> 32 µM (inactive)
same,EC50,[9],> 32 µM (inactive)
same,EC50,Cannabinoid receptor 1 [10],> 32 µM (inactive)
same,IC50,[11],0.908 µM (active)
same,IC50,Cannabinoid receptor 1 [12],6.63 µM (active)
same,IC50,Cannabinoid receptor 2 [13],> 32 µM (inactive)
CCOC(=O)CN1C(=O)/C(=C2\SC(=S)N(NC(=O)c3cccnc3)C2=O)c2ccccc21,IC50,[14],> 100 µM (inactive)
same,IC50,[15],11.2 µM (active)
same,IC50,[16],> 66 µM (inactive)
same,IC50,[17],> 66 µM (inactive)
same,EC50,[18],25.5 µM (active)
